Laboratory results as given in patent EP1247803A2, “Indolinone compounds suitable for modulation of protein kinases” (Sugen, Inc., priority 1996, dated 1998).

Experiments:
[1] = target: T1, FLK-1 receptor (Mus musculus, UniProt P35918); experiment: FLK-1 ELISA (kinase activity of the FLK-1 receptor in FLK-1/NIH3T3 cells, VEGF stimulated); type: cell-based
T1 construct: expressed in transfected cells; host or cells: NIH3T3 C7#3
Procedure, shortened: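 FLK-1-expressing NIH3T3 C7#3 cells, starved overnight in 0.1% FBS medium, were treated with compounds at a 1:200 final dilution (0.5% DMSO) for 2 h at 37 °C, with VEGF stimulation. FLK-1 kinase activity was read by ELISA on anti-rabbit IgG plates using affinity-purified anti-FLK-1 antiserum.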

[2] = system: MET; experiment: MET biochemical kinase assay; parameters: species or system human; concentration or dose not given beside the values
Procedure, shortened: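 Immunocaptured MET autophosphorylation, read colorimetrically (TMB) via HRP anti-phosphotyrosine antibody. Kinase reaction initiated with buffer containing ATP and divalent metals after compound addition to plate-bound receptor from lysates.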

T1 sequence (P35918 20-1345): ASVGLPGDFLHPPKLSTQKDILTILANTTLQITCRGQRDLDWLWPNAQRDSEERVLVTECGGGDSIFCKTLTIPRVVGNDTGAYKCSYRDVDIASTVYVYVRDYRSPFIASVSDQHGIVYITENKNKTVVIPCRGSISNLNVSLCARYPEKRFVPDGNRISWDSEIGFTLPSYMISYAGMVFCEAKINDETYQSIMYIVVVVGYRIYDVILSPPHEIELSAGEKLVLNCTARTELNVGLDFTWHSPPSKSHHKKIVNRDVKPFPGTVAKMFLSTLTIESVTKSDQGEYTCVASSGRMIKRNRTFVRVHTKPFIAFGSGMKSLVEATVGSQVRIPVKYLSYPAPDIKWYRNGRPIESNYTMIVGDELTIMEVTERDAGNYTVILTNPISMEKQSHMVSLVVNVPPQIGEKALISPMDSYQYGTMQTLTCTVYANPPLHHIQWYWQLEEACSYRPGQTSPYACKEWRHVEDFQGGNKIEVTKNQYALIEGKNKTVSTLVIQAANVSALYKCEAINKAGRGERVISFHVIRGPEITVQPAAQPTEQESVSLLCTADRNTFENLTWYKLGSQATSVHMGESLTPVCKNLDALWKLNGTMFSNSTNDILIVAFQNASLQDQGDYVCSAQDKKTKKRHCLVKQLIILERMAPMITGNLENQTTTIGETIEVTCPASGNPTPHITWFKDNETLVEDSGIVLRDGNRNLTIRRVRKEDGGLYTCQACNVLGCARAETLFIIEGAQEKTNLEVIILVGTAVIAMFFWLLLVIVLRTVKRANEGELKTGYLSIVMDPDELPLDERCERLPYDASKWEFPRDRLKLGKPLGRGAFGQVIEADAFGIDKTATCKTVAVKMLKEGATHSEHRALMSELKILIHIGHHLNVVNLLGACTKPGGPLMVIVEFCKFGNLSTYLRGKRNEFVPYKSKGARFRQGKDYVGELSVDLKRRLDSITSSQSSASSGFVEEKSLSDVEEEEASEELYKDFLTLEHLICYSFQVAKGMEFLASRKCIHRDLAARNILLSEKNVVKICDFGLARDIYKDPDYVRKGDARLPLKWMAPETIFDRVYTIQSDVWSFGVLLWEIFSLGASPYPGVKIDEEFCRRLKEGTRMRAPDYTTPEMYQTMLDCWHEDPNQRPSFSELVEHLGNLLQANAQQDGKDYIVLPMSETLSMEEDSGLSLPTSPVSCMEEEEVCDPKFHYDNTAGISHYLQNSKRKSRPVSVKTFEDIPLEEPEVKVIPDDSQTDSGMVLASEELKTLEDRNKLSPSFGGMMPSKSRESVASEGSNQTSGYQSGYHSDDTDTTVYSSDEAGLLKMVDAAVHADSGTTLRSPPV

Row | Structure (SMILES) | Fik Kinase %Inhibition [1] [%] | Met Kinase % Inhibition [2] [%]
1 | CNS(=O)(=O)c1ccc2c(c1)C(=Cc1c(OC)cc(OC)cc1OC)C(=O)N2 [10719/D06] | 25.8 | 11.2
2 | COc1ccc(C=C2C(=O)Nc3ccc(S(=O)(=O)Nc4ccc(C(F)(F)F)cc4)cc32)c(OC)c1 [10719/E04] | 31.2 | 3.1
3 | O=C1Nc2c(Br)cc(Br)cc2C1=Cc1c(F)cc(F)cc1F [10720/A02] | 4.7 | 45.2
4 | Cc1cc(O)cc(O)c1C=C1C(=O)Nc2c(Br)cc(Br)cc21 [10720/A08] | -2.2 | 77.9
5 | CNS(=O)(=O)c1ccc2c(c1)C(=Cc1ccc(OC)cc1OC)C(=O)N2 [10719/D04] | 27.8 | 28.9
6 | O=C1Nc2ccc(I)cc2C1=Cc1ccccc1O [10720/B05] | 11.6 | 51.8
7 | O=C1Nc2ccc(S(=O)(=O)Nc3ccc(C(F)(F)F)cc3)cc2C1=Cc1ccc(F)cc1Cl [10719/E09] | 13.5 | 36.1
8 | CN(C)c1ccc(C=C2C(=O)Nc3ccc(S(=O)(=O)N4CCOCC4)cc32)cc1 [10719/F08] | 15.1 | 75.7
9 | Cc1c(Br)ccc2c1C(=Cc1cccc([N+](=O)[O-])c1)C(=O)N2 [10719/C10] | 11.8 | 7.9
10 | CNS(=O)(=O)c1ccc2c(c1)C(=Cc1c(F)cc(F)cc1F)C(=O)N2 [10720/D02] | 12.1 | 17.8
11 | COc1ccc(O)c(C=C2C(=O)Nc3c(Br)cc(Br)cc32)c1 [10720/A10] | -5.2 | 68.4
12 | CCOc1cc(C=C2C(=O)Nc3ccc(Br)c(C)c32)ccc1O [10720/C09] | 12.1 | 47.5
13 | COc1cc(O)ccc1C=C1C(=O)Nc2ccc(Br)c(C)c21 [10720/C03] | 15.1 | 50.3
14 | COc1ccc(C=C2C(=O)Nc3ccc(Br)c(C)c32)cc1OC [10720/C04] | 15.3 | 29.0
15 | CCOc1ccccc1C=C1C(=O)Nc2ccc(Br)c(C)c21 [10717/C02] | 4.1 | 29.7
16 | COc1ccc(C=C2C(=O)Nc3ccc(I)cc32)cc1OC [10720/B04] | 9.8 | 61.8
17 | Cc1c(Br)ccc2c1C(=Cc1c(F)cc(F)cc1F)C(=O)N2 [10720/C02] | 18.0 | 63.6
18 | COc1cc(O)ccc1C=C1C(=O)Nc2c(Br)cc(Br)cc21 [10720/A03] | 17.7 | 58.2
